One may read the AUC(0-t) as exposure summed from dosing to a finite time, without extrapolation to infinity. Lower therefore signals low exposure. What is called clearance is the volume of plasma or blood freed of the substance per unit of time. The half-life is the time in which the quantity being followed falls by half. Read a low half-life as rapid decline. As a reminder, the EC50 is the concentration at which the effect is half-maximal. Broadly, the bioavailability is dose-corrected exposure relative to a reference, in per cent. High values mean much systemic uptake, low ones little systemic uptake. For orientation: Tmax means the time from dosing to the highest level. As a reminder, the Cmax is the peak of the concentration-time curve.

The text below walks through data of patent US11028095B2, “Spiro-lactam and bis-spiro-lactam NMDA receptor modulators and uses thereof” (Aptinyx Inc., priority 2016, dated 2021).

Read-outs that look alike come from different tables or passages of the source. A value given as a limit tells only on which side of the number the result lay.

A short description of one series: IV pharmacokinetics. Format: in vivo. The following applies: rat, in vivo, 2 mg/kg, Sprague Dawley rats, normal saline; for C0: read-out: C0; for Vd: read-out: Vss. The procedure: Sprague Dawley rats were dosed intravenously using a normal saline formulation containing 2 mg/kg of the compounds identified in the below table. The table below summarizes the results of the IV pharmacokinetics.

Series [1] has as its target T1, NMDAR2B expressing HEK cell membranes (Homo sapiens, UniProt Q05586+Q13224).
T1 construct: expressed in transfected cells; host or cells: HEK cells (membrane extract)
Description: NMDAR agonist assay, [3H]MK-801 binding, NMDAR2B. Type of series: biochemical. The note with it: for EC50: [3H]MK-801 binding. Here is the method:
(§1) (nonequilibrium conditions).
(§2) The baseline value was determined from the best fit curve of the DPM values modeled using the GraphPad program and the log(agonist) vs. response(three parameters) algorithm was then subtracted from all points in the dataset.

In series [2] the target is T2, NMDAR2B expressing HEK cell membranes (Homo sapiens, UniProt Q13224).
T2 construct: expressed in transfected cells; host or cells: HEK cells (membrane extract)
The series is described as follows: NMDAR agonist assay, [3H]MK-801 binding, NMDAR2B. The note with it: 50 μM glutamate; relative to 1 mM glycine. Format: biochemical. The procedure: as §1, §2

Series [3] has as its target T3, NMDAR2A expressing HEK cell membranes (Homo sapiens, UniProt Q12879).
T3 construct: expressed in transfected cells; host or cells: HEK cells (membrane extract)
The series is described as follows: NMDAR agonist assay, [3H]MK-801 binding, NMDAR2A. Type of series: biochemical. The following applies: 50 μM glutamate. Here is the method:
as §1, §2

Series [4] addresses T4, NMDAR2C expressing HEK cell membranes (Homo sapiens, UniProt Q05586+Q14957).
T4 construct: expressed in transfected cells; host or cells: HEK cells (membrane extract)
The series is described as follows: NMDAR agonist assay, [3H]MK-801 binding, NMDAR2C. Type of series: biochemical. The note with it: for EC50: [3H]MK-801 binding. Here is the method:
as §1, §2

Series [5] concerns positive (hedonic) 50-kHz ultrasonic vocalizations (USVs). The series is described as follows: Positive Emotional Learning (PEL) test. Type of series: in vivo. The following applies: rat, PO, one hour after administration. Here is the method:
Experiments were conducted as described in Burgdorf et al., “The effect of selective breeding for differential rates of 50-kHz ultrasonic vocalizations on emotional behavior in rats,” Devel. […] Rat 50-kHz ultrasonic vocalization (hedonic USVs) is a validated model for the study of positive affective state and is best elicited by rough-and-tumble play.
The PEL assay measures the acquisition of positive (hedonic) 50-kHz ultrasonic vocalizations (USVs) to a social stimulus, heterospecific rough and tumble play stimulation. Heterospecific rough-and-tumble play stimulation was administered by the experimenter's right hand. One hour after administration of test compound or vehicle negative control (0.5% sodium carboxymethyl cellulose in 0.9% sterile saline vehicle), animals received 3 min of heterospecific rough-and-tumble play that consisted of alternating 15 sec blocks of heterospecific play and 15 sec of no-stimulation. […] Frequency modulated 50-kHz USVs that occurred during each of the no-stimulation periods were quantified to measure PEL. Animals were not habituated to play stimulation before testing. Positive emotional learning was measured during the conditioned stimulus (CS) trials preceding the tickle unconditioned stimulus (UCS) trials. Animals received 15 second trials consisting of 6 CS and 6 UCS trials each (3 min total).

Series [6] in a line: Microsomal stability (Rat). Format: in vitro ADME. The note with it: rat microsomes. The procedure:
(§3) Microsomal stability of disclosed compounds was investigated. The following table indicates the percent of compound remaining after 60 minutes.

Another series in a line: Plasma stability (Human). Format: in vitro ADME. The procedure: (§4) Plasma stability of disclosed compounds was investigated. The following table indicates the percent of compound remaining after 60 minutes.
Series [7] concerns the target T5, NMDAR2D expressing HEK cell membranes (Homo sapiens, UniProt O15399+Q05586).
T5 construct: expressed in transfected cells; host or cells: HEK cells (membrane extract)
The series is described as follows: NMDAR agonist assay, [3H]MK-801 binding, NMDAR2D. Type of series: biochemical. The note with it: for EC50: [3H]MK-801 binding; for Emax: read-out: NMDAR2D: % maximal [3H]MK-801 binding relative to 1 mM glycine. The procedure: as §1, §2

The nature of the next series: Plasma stability (Rat). Format: in vitro ADME. Here is the method: as §4
A short description of series [8]: Oral pharmacokinetics (plasma, brain, CSF). The following applies: Sprague Dawley rats, per os, 10 mg/kg; for AUC(0-t) / bioavailability / Tmax / Cmax: rat, plasma, po; for Tmax: normal saline, read-out: Tmax; for Cmax: read-out: Cmax. Format: in vivo. The procedure:
In another experiment, Sprague Dawley rats were dosed per os using a normal saline formulation containing 10 mg/kg of the compounds identified in the table below. Plasma, brain, and CSF samples were analyzed at various time points over a 24 hour period. The table below summarizes the results of the oral pharmacokinetics.

A short description of series [9]: Microsomal stability (Human). Type of series: in vitro ADME. The note with it: human microsomes. The procedure:
as §3

For series [10], the target named is T6, NMDAR2A expressing HEK cell membranes (Homo sapiens, UniProt Q05586+Q12879).
T6 construct: expressed in transfected cells; host or cells: HEK cells (membrane extract)
The series is described as follows: NMDAR agonist assay, [3H]MK-801 binding, NMDAR2A. The following applies: for EC50: NMDAR2A: log EC50, 50 μM glutamate, [3H]MK-801 binding. Type of series: biochemical. Here is the method:
as §1, §2

Where [11] appears, read: NMDAR2B: log EC50, 50 μM glutamate.
The mark [12] stands for this setting: read-out: NMDAR2C: % maximal [3H]MK-801 binding relative to 1 mM glycine.

T1 sequence (Q13224 27-1484, other chains not shown): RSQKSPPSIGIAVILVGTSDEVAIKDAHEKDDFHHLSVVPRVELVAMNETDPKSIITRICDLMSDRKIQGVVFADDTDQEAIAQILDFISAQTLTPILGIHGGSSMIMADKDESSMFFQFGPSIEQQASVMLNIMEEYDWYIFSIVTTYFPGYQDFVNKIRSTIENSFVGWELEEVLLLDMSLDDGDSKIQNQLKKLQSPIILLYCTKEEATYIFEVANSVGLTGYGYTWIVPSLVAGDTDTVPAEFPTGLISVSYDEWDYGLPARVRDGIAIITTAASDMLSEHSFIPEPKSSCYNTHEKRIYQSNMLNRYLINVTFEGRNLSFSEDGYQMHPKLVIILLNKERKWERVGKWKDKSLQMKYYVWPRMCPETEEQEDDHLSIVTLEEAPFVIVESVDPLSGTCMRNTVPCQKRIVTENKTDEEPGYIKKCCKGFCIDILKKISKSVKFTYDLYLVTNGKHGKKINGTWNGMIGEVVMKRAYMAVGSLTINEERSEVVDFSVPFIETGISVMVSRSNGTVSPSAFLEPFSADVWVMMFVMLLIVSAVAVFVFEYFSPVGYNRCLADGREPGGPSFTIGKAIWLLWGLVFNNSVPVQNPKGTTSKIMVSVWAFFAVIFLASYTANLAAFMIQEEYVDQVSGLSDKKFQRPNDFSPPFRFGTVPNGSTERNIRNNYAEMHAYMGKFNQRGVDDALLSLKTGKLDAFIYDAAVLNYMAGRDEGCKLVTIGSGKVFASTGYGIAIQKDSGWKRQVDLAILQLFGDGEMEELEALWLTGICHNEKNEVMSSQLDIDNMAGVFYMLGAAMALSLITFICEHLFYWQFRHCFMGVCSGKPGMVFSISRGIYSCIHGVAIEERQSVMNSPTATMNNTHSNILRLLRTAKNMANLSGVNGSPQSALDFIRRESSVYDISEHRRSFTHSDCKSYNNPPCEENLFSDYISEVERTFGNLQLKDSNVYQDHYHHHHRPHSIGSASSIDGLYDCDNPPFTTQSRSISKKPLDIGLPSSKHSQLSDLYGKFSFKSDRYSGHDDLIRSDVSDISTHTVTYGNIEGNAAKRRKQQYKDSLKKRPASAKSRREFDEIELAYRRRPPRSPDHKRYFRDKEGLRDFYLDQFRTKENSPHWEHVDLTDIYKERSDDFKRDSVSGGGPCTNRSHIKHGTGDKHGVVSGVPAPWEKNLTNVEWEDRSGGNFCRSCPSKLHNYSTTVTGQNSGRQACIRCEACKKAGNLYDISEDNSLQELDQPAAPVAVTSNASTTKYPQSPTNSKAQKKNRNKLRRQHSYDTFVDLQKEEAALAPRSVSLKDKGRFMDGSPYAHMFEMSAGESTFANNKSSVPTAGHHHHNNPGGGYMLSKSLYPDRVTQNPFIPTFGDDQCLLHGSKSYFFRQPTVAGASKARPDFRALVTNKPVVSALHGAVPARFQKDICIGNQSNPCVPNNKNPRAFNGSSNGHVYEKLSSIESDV
T4 sequence (Q14957 20-1233, other chains not shown): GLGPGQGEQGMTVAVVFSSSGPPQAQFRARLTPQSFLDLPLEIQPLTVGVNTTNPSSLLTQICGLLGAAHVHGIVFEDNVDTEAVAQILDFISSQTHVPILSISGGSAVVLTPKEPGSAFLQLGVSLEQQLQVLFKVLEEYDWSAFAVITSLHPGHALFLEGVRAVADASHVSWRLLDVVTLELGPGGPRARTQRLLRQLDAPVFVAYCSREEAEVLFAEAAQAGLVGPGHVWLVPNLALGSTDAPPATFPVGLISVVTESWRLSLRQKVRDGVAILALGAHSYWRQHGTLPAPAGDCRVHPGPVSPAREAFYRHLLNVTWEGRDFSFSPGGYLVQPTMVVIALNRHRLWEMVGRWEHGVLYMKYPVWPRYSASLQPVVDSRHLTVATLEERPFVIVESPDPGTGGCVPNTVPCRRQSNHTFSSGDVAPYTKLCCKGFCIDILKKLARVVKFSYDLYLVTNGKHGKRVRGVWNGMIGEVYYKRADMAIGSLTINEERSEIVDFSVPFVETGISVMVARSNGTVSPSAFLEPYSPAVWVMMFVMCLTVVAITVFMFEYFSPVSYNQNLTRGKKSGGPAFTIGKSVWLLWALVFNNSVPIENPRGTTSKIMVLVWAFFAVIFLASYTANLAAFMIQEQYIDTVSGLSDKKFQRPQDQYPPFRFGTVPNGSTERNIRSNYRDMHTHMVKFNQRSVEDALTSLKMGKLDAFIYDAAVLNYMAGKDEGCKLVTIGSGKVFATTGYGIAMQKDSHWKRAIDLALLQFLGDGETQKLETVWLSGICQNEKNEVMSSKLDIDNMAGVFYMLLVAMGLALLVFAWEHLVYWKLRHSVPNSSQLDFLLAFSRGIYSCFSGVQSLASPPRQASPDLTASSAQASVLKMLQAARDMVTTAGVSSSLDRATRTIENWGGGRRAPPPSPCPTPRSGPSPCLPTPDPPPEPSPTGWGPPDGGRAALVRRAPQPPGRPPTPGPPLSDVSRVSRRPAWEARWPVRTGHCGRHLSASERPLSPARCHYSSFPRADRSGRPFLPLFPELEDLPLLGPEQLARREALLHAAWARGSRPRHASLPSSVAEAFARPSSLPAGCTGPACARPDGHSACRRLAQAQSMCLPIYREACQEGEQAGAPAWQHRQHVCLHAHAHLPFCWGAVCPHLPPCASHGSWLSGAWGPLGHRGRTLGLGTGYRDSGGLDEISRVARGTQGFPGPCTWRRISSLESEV
T6 sequence (Q12879 23-1464, other chains not shown): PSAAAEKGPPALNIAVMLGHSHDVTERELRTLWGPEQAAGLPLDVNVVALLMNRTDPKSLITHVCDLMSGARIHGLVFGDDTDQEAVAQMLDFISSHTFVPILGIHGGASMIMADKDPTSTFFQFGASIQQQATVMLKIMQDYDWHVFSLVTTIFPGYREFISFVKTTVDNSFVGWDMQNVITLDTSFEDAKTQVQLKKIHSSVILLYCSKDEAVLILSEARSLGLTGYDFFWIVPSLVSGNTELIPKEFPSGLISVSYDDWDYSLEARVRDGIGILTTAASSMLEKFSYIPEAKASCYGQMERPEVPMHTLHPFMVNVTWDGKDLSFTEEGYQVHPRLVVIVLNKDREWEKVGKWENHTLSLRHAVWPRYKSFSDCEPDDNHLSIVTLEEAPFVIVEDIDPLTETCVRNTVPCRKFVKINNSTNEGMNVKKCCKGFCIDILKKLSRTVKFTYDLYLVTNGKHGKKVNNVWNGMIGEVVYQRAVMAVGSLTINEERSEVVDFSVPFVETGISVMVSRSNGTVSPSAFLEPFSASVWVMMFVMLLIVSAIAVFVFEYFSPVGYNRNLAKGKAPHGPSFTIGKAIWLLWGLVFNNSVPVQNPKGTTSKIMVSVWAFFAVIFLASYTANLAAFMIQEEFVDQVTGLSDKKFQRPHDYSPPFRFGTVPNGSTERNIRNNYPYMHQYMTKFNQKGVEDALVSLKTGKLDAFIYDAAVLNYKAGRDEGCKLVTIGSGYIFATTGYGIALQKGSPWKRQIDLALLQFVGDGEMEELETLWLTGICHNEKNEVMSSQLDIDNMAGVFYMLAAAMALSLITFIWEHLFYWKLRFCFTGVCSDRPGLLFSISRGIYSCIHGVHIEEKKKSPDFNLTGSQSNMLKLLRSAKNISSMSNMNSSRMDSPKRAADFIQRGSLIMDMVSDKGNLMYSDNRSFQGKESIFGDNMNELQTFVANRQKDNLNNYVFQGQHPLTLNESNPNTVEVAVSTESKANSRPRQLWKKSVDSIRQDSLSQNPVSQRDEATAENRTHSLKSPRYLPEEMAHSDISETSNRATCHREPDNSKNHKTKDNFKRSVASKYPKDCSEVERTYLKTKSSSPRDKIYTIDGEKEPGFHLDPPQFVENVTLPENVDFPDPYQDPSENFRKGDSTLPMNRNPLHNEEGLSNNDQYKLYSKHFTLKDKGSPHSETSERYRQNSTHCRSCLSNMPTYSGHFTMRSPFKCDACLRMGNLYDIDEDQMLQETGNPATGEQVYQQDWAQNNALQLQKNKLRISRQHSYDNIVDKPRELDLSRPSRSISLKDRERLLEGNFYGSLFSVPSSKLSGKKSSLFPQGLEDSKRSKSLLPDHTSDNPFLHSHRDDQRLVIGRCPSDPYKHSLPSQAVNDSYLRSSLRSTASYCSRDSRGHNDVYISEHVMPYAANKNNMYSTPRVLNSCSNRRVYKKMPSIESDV

In the case of `CC(C)C(=O)N1C2(CCC13CNC3=O)CNC2=O` (single isomer, unassigned) [AH, 5-isobutyryl-2,5,8-triazadispiro[3.1.36.24]undecane-1,7-dione], in the series “IV pharmacokinetics” (Sprague Dawley, iv), the AUC(0-t) is 3020 ng·h/mL, the clearance is 10.9 mL/min/kg, the half-life is 3.68 h and the C0 stood at 3870 ng/mL. Further, the Vd in “IV pharmacokinetics” (Sprague Dawley, iv) was found to be 1.1 L/kg. The EC50 in series [1] (50 μM glutamate, read-out: NMDAR2B log EC50 (converted)) was < 1 nM. Besides, the “NMDAR2B: % maximal [3H]MK-801 binding relative to 1 mM glycine” value in [2] is listed as “+ (<100%=+)”. Moreover, the 50% effective concentration (EC50) in series [3] ([3H]MK-801 binding, read-out: NMDAR2A: log EC50 (converted)) is < 1 nM. The “NMDAR2A: % maximal [3H]MK-801 binding relative to 1 mM glycine” value in series [3] is given as “+ (<100%=+)”. For the same compound, the EC50 in series [4] (50 μM glutamate, read-out: NMDAR2C: log EC50 (converted)) is < 1 nM. Moreover, the Emax in [4] (50 μM glutamate, relative to 1 mM glycine, read-out: NMDAR2C A: % maximal [3H]MK-801 binding relative to 1 mM glycine) was < 100%. In addition, the “Max Effect (mean number of 50 kHz USVs per 15 seconds)” value in series [5] (dose 0.1 mg/kg) is “** (**: 11-16.9)”. Besides, the “Microsomal (Rat): percent of compound remaining after 60 minutes” value in [6] was determined as 100%. Besides, the “Plasma (Human): percent of compound remaining after 60 minutes” value in “Plasma stability (Human)” is listed as 95%. Further, in [7] (50 μM glutamate, read-out: NMDAR2D: log EC50 (converted)), the EC50 was < 1 nM. Moreover, the Emax in [7] (50 μM glutamate, relative to 1 mM glycine) was < 100%. Further, the “Plasma (Rat): percent of compound remaining after 60 minutes” value in “Plasma stability (Rat)” was determined as 100%. Besides, in series [8], the “CSF Cmax” value amounted to 123 ng/mL and the “Brain Cmax” value was 45.8 ng/mL. In [8] (Sprague Dawley), the AUC(0-t) was 2570 ng·h/mL, the bioavailability was found to be 17%, the Tmax was found to be 1.67 h and the highest concentration (Cmax) was determined as 655 ng/mL. Also, the “Microsomal (Human): percent of compound remaining after 60 minutes” value in series [9] came out at 100%.
Consider `O=C1NCC12CCC1(CNC1=O)N2` (single isomer, unassigned) [AJ, 2,5,8-triazadispiro[3.1.36.24]undecane-1,7-dione], for which, in “IV pharmacokinetics”, the exposure AUC(0-t) was 2090 ng·h/mL, the clearance is 15.4 mL/min/kg, the half-life was 0.44 h and the C0 was 4860 ng/mL. Also, in “IV pharmacokinetics”, the Vd came to 0.47 L/kg. In addition, in series [1] (setting [11]), the EC50 is < 1 nM. Also, the “NMDAR2B: % maximal [3H]MK-801 binding relative to 1 mM glycine” value in [2] is listed as “+ (<100%=+)”. Besides, in [3], the “NMDAR2A: % maximal [3H]MK-801 binding relative to 1 mM glycine” value is “+ (<100%=+)”. Besides, the half-maximal effective concentration (EC50) in series [10] was < 1 nM. For the same compound, the EC50 in series [4] (NMDAR2C: log EC50, 50 μM glutamate) is < 1 nM. In addition, the Emax in [4] (setting [12]) is < 100%. In series [5] (dose 0.1 mg/kg), the “Max Effect (mean number of 50 kHz USVs per 15 seconds)” value was “** (**: 11-16.9)”. The “Microsomal (Rat): percent of compound remaining after 60 minutes” value in [6] is 100%. In the series “Plasma stability (Human)”, the “Plasma (Human): percent of compound remaining after 60 minutes” value is 90%. Besides, the EC50 in [7] (NMDAR2D: log EC50, 50 μM glutamate) was < 1 nM. Also, the Emax in series [7] was < 100%. Moreover, in “Plasma stability (Rat)”, the “Plasma (Rat): percent of compound remaining after 60 minutes” value stood at 68%. For the same compound, in series [8], the “CSF Cmax” value is listed as 71.9 ng/mL, the “Brain Cmax” value turned out to be 0 ng/mL, the AUC(0-t) was 2060 ng·h/mL and the bioavailability came to 20%. Moreover, in series [8], the time of peak concentration (Tmax) was determined as 0.5 h and the highest concentration (Cmax) is 1160 ng/mL. Moreover, in [9], the “Microsomal (Human): percent of compound remaining after 60 minutes” value turned out to be 100%.
For `CC(C)CN1[C@]2(CC[C@]13CNC3=O)CNC2=O` [Compound AF, 5-isobutyl-2,5,8-triazadispiro[3.1.36.24]undecane-1,7-dione], in the series “IV pharmacokinetics”, the AUC(0-t) was 6450 ng·h/mL, the clearance came out at 5.2 mL/min/kg, the half-life was 4.99 h and the C0 was 3900 ng/mL. Also, the Vd in “IV pharmacokinetics” came to 0.59 L/kg. The EC50 in series [1] (setting [11]) is < 1 nM. Further, the Emax in series [1] (read-out: NMDAR2B: % maximal [3H]MK-801 binding relative to 1 mM glycine, 50 μM glutamate, relative to 1 mM glycine) is < 100%. The EC50 in series [10] was < 1 nM. The Emax in [10] (read-out: NMDAR2A: % maximal [3H]MK-801 binding relative to 1 mM glycine, 50 μM glutamate, relative to 1 mM glycine) was < 100%. Also, the Emax in series [4] (setting [12]) was > 100%. Moreover, in [5] (dose 0.001-1 mg/kg), the “Max Effect (mean number of 50 kHz USVs per 15 seconds)” value was “** (**: 11-16.9)”. For the same compound, the “Microsomal (Rat): percent of compound remaining after 60 minutes” value in series [6] was 87%. For the same compound, the “Plasma (Human): percent of compound remaining after 60 minutes” value in the series “Plasma stability (Human)” is reported as 99%. Moreover, the Emax in series [7] is < 100%. Moreover, the “Plasma (Rat): percent of compound remaining after 60 minutes” value in “Plasma stability (Rat)” turned out to be 90%. Besides, in [8], the “CSF Cmax” value is recorded as 2781 ng/mL, the “Brain Cmax” value was found to be 1313.8 ng/mL, the AUC(0-t) was determined as 16100 ng·h/mL and the bioavailability came out at 82%. For the same compound, in [8], the Tmax came to 0.42 h and the peak concentration (Cmax) came to 7250 ng/mL. Moreover, in series [9], the “Microsomal (Human): percent of compound remaining after 60 minutes” value was found to be 92%.
